These results are taken from patent US20190022117A1, “COMBINATION THERAPY” (NuCana plc, priority 2015, published 2019).

The structures appear in SMILES notation.

The data set in a line: ABC-008 clinical study (NUC-1031 in combination with cisplatin), plasma pharmacokinetics. It counts as in vivo, human. As for the experimental part:
Initial pharmacokinetic analysis was conducted on samples obtained from the first three patients on the ABC-008 clinical study.
Patient 1: —Metastatic Biliary Tract Carcinoma—Starting dose: 625 mg/m^2 (S)-NUC-1031+25 mg/m^2 cisplatin
Patient 2: —Metastatic Biliary Tract Carcinoma—Starting dose: 625 mg/m^2 (S)-NUC-1031+25 mg/m^2 cisplatin
Patient 3: —Metastatic Biliary Tract Carcinoma—Starting dose: 625 mg/m^2 (S)-NUC-1031+25 mg/m^2 cisplatin
Both NUC-1031 and cisplatin were administered on days 1 and 8 of a 21 day cycle.
An appropriate dosage of 625 mg/m^2 of NUC-1031 was prepared in a Luerlock syringe. The dosage given was based on the subject's height and weight using a standard body surface area (BSA) calculation. A polyethylene extension line was primed with up to 1.5 ml of Flushing Solution, prior to connecting the syringe containing NUC-1031 to the extension line.
The extension line was connected to the patient's Central Venous Access Device (CVAD), and NUC-1031 was injected at a rate of 20 ml/hour using a syringe pump.
Once the injection was complete the NUC-1031 syringe was disconnected from the extension line, and the extension line was then flushed with an additional volume of up to 3 ml of Flushing solution.

Setting [1] is: ABC-008 (with cisplatin) compared to ProGem1 (single agent NUC-1031).

As to `C[C@H](NP(=O)(OC[C@H]1O[C@@H](n2ccc(N)nc2=O)C(F)(F)[C@H]1O)Oc1ccccc1)C(=O)OCc1ccccc1` (stereo partly drawn) [NUC-1031, 2′-Deoxy-2′,2′-difluoro-D-cytidine-5′-O-[phenyl (benzoxy-L-alaninyl)] phosphate], under setting [1], the “AUC increase, NUC-1031 plasma” value is listed as 2.1 fold and the “Cmax increase, NUC-1031 plasma” value was determined as 1.9 fold. Also, the “increase in half-life, NUC-1031 plasma PK parameters” value (ABC-008 (with cisplatin) compared to single agent NUC-1031) amounted to 3.6 fold.
